pIC50: −log10 of the molar value. In brackets after ≈: the same amount, converted by molar mass.
Tests used:
L929 fibroblasts = test: Cytotoxicity, L929; type: cell-based; details: Mus musculus, read-out: IC50 L-929
Procedure: (§1) The compounds 9a, 9b and 9c, which are exemplary compounds of formula (III) according to the present invention, as well as the reference compound 25f were tested in a similar manner.

NHDF fibroblasts = test: Cytotoxicity, NHDF; type: cell-based; details: Homo sapiens; NHDF fibroblasts (non-malign)
Procedure: as §1

HUVEC cells = test: Minimal inhibitory concentration in HUVEC; type: cell-based
Procedure: as §1

KB-3-1 cervix carcinoma = test: Cytotoxicity, KB-3-1; type: cell-based; details: Homo sapiens
Procedure: as §1

[1] = system: PtK-2 opossum kidney cells; test: Cytotoxicity, PtK-2; type: cell-based; details: PtK2; PtK-2 opossum kidney cells (non-malign)
Procedure: as §1

[2] = system: 1411HP germ cell tumor xenografts; test: Nude mouse xenograft model of resistant 1411HP; type: in vivo; details: 1411HP xenograft model
Procedure: In vivo antitumor activity and tolerability of compounds 5b and 6b of the invention were studied in a nude mouse xenograft model of the resistant germ cell tumor cell line 1411HP employing Athymic Nude-Fox n1 nu/nu mice (Harlan und Winkelmann, Borchen, Germany).
The tests were carried out as follows. The mice were kept under pathogen-free conditions, fed on an autoclaved standard diet and given free access to sterilized water. Each of five mice were administered a 150 μL phosphate buffered saline suspension of 10 million 1411HP cells into the left flank to generate subcutaneous xenograft tumors. After 4 weeks one group of two mice bearing 1411HP xenografts with a volume of ca. 1 cm^3 were injected i.p. with a single dose of 30 mg/kg body weight of 5b or 6b, respectively. Two mice in the second group with xenografts of a volume of ca. 2.5 cm^3 were injected i.p. with 20 mg/kg body weight of 5b on two consecutive days. Tumor volumes were calculated by caliper measurement using the formula a^2×b×0.5 with a being the short and b the long dimension. Body weight was assessed twice weekly and daily while under therapy.

[3] = system: A2780 ovarian carcinoma xenografts; test: A2780 ovarian carcinoma xenograft model; type: in vivo, mouse
[4] = system: H12.1 germ cell tumor, 1411HP germ cell tumor, A2780 ovarian carcinoma, HT29 colon carcinoma, DLD1 colon carcinoma, HCT8 colon carcinoma; test: SRB-cytotoxicity assay in a panel of tumor cell lines; type: cell-based, human; details: H12.1, 1411HP
Procedure: The cytotoxic activity of 5b was established by standard colorimetric tests (SRB- and MTT-assays) against various tumor cell lines of different entities. For the SRB cytotoxicity assay, dose-response curves of the testicular germ cell tumor cell lines exposed to drug concentrations of 0.001-10 μM were established using the sulforhodamine-B (SRB) microcuiture colorimetric assay (Papazisis et al. Optimization of the sulforhodamine B colorimetric assay. J. Immunol. Methods 1997, 208, 151-158) and performed as described in: Müller et al. Failure of activation of caspase-9 induces a higher threshold for apoptosis and cisplatin resistance in testicular cancer. Cancer Res. 2003, 63, 513-521. Briefly, cells were seeded into 96-well plates on day 0, at cell densities previously determined to ensure exponential cell growth during the period of the experiment. On day 1, cells were treated with the drugs dissolved in medium to give the appropriate concentrations for indicated times and the percentage of surviving cells relative to untreated controls was determined on day 5.
The compounds 5b, 6b, 5f and 6f as well as the reference compound 25f (Wang et al.) were furthermore subjected to an SRB-cytotoxicity assay in a panel of tumor cell lines (H12.1 germ cell tumor, 1411HP germ cell tumor, A2780 ovarian carcinoma, HT29 colon carcinoma, DLD1 colon carcinoma, HCT8 colon carcinoma).

[5] = Toxicity / tolerability in mice; type: in vivo
Procedure: Prior to testing compound 5b, healthy animals of this type were treated with an ascending range of doses of 5b in order to establish a toxicity profile. […] Suitable dosages were then administered in further tests in a nude mouse xenograft model of a pair of germ cell tumor cell lines, the chemoresistant cell line 1411HP and the chemosensitive cell line H12.1. These cell lines retain their individual in vitro chemosensitivities to cisplatin when grown as xenograft tumors and so may serve as a model of the clinical situation of resistance to chemotherapy (Mueller et al. Cancer Res. 2003; Mueller et al. Tumor Biol. 2006).
Compounds 5b, 6b and 6f were also tested in terms of feasibility of oral administration. Mice received a single dose of 40 mg/kg body weight of 5b, 6b or 6f, respectively. […] Then compounds 6b or 6f were given peroral as dual-dose application on two consecutive days in accordance to the i.p. treatment scheme used for the regression trials but with a 2-fold higher dose of 2×40 mg/kg body weight.

Structure (SMILES)	pIC50 (L929 fibroblasts)	pIC50 (NHDF fibroblasts)	minimal inhibitory concentration (MIC) HUVEC (HUVEC cells)	pIC50 (KB-3-1 cervix carcinoma)	pIC50 [1]	vascular disrupting effect [2]	vascular disrupting effect [3]	in vitro cytotoxicity compared to 25f [4]	toxicity after oral administration ([5]; peroral dual-dose 2×40 mg/kg on two consecutive days)	toxicity after oral administration ([5]; single dose 40 mg/kg oral)	toxicity after oral administration ([5]; single dose 60 mg/kg peroral)
COc1ccc(-c2ncn(C)c2-c2cc(Br)c(OC)c(OC)c2)cc1F [9a, 1-Methyl-5-(3-bromo-4,5-dimethoxyphenyl)-4-(3-fluoro-4-methoxyphenyl)imidazole]	7.62	6.76	109 nM (≈ 0.0459 µg/mL)	8.36	6.36						
CCOc1ccc(-c2c(-c3cc(Cl)c(OC)c(OC)c3)ncn2C)cc1N [compound 5f, 1-methyl-5-(3-amino-4-ethoxyphenyl)-4-(3-chloro-4,5-dimethoxyphenyl)-imidazole]						vascular disrupting activity	vascular disrupting activity	further improvement of cytotoxicity			
CCOc1ccc(-c2c(-c3cc(Br)c(OC)c(OC)c3)ncn2C)cc1N [compound 6f, 1-methyl-5-(3-amino-4-ethoxyphenyl)-4-(3-bromo-4,5-dimethoxyphenyl)-imidazole]						vascular disrupting activity	vascular disrupting activity	further improvement of cytotoxicity	no signs of toxicity were observed	No signs of toxicity were observed	tolerated symptom-free

From patent US8980933B2, “Combretastatin analogs for use in the treatment of cancer” (Universitat Bayreuth, priority 2010, dated 2015)
